Reference: PubChem BioAssay (NCI)
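Results reflect a 48-hour exposure of cells in 96-well plates to compound at five concentrations. The concentration for 50% growth inhibition is given as GI50. TGI: total growth inhibition.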

Assays:
Assay in all cases: NCI-60 cell line screen, 48 h
COLO 205 colon = system: COLO 205 colon
SK-MEL-28 melanoma = system: SK-MEL-28 melanoma
SNB-19 CNS = system: SNB-19 CNS
UO-31 renal = system: UO-31 renal
BT-549 breast = system: BT-549 breast
NCI-H226 lung = system: NCI-H226 lung
NCI-H23 lung = system: NCI-H23 lung
MCF7 breast = system: MCF7 breast
SK-MEL-5 melanoma = system: SK-MEL-5 melanoma
CCRF-CEM leukemia = system: CCRF-CEM leukemia

Row | Structure (SMILES) | TGI (COLO 205 colon) [µM] | TGI (SK-MEL-28 melanoma) [µM] | TGI (SNB-19 CNS) [µM] | TGI (UO-31 renal) [µM] | TGI (BT-549 breast) [µM] | TGI (NCI-H226 lung) [µM] | TGI (NCI-H23 lung) [µM] | TGI (MCF7 breast) [µM] | TGI (SK-MEL-5 melanoma) [µM] | TGI (CCRF-CEM leukemia) [µM] | GI50 (COLO 205 colon) [nM] | GI50 (SK-MEL-28 melanoma) [nM] | GI50 (SNB-19 CNS) [µM] | GI50 (UO-31 renal) [nM] | GI50 (BT-549 breast) [nM] | GI50 (NCI-H226 lung) [nM] | GI50 (NCI-H23 lung) [µM] | GI50 (MCF7 breast) [nM] | GI50 (SK-MEL-5 melanoma) [nM] | GI50 (CCRF-CEM leukemia) [µM]
1 | O=c1cc(-c2ccc(O)cc2)oc2cc(O[C@@H]3O[C@H](CO)[C@@H](O)[C@H](O)[C@H]3O)cc(O)c12 | > 100 | > 100 | > 100 | > 100 | > 100 | > 100 | > 100 | > 100 | > 100 | > 100 | – | – | – | – | – | – | – | – | – | –
2 | COC(=O)c1cc2c(cc1Cl)SC1=NN(C)S(=O)N1S2(=O)=O (stereo not given) | > 100 | > 100 | > 100 | > 100 | > 100 | > 100 | > 100 | > 100 | > 100 | > 100 | > 100000 | > 100000 | > 100 | 70200 | > 100000 | > 100000 | > 100 | > 100000 | > 100000 | > 100
3 | CCN(Cc1cc(F)ccc1F)c1ccc(CO)c(Cl)c1 | 6.72 | 27.5 | 80.3 | 23.4 | 30.8 | 0.178 | 33.1 | 12.7 | 22.9 | 91.5 | 2170 | 13800 | 20.2 | 2020 | 15400 | 48.4 | 11.4 | 181 | 10800 | 22.5
4 | Oc1c(Cl)cc(Cl)c2ccc(Cn3cc(-c4cc(C(F)(F)F)cc(C(F)(F)F)c4)nn3)nc12 | 2.89 | 3.48 | 21.8 | 5.51 | 4.41 | 21 | 9.88 | 2.1 | 10.7 | 5.49 | 1350 | 1700 | 8.28 | 1600 | 1840 | 4930 | 3.05 | 526 | 2980 | 0.305
5 | CCC(C)Oc1nc2c(c(=O)n(C)c(=O)n2C)n1C (stereo not given) | > 100 | > 100 | > 100 | > 100 | > 100 | > 100 | > 100 | > 100 | > 100 | > 100 | > 100000 | > 100000 | > 100 | > 100000 | > 100000 | > 100000 | > 100 | > 100000 | > 100000 | > 100
6 | Cc1ncc(C(=O)Nc2ccc(CN3CCN(C)CC3)c(C(F)(F)F)c2)cc1C#Cc1ccc(N)nc1 | 4.55 | 1.3 | 5.06 | 0.793 | 4.09 | 1.66 | 4.13 | 4.89 | 1 | 12.3 | 239 | 251 | 1.22 | 161 | 1200 | 206 | 0.6 | 903 | 532 | 0.598
7 | CCCCCCCCOC(=O)c1c(C)[nH]c(/C=C2\N=C(c3ccc[nH]3)C=C2OC)c1C | 2.62 | 6.14 | > 46.3 | 0.108 | 14.4 | 6.26 | 2.2 | 1.67 | 0.0819 | > 27.4 | 84.6 | 250 | 0.551 | 37.7 | 164 | 87.3 | 0.0965 | 46.2 | 16.9 | < 0.0178
8 | O=C(/C=C/c1ccc(O)c(O)c1)NCc1c[nH]c2ccccc12 | > 100 | > 100 | > 100 | > 100 | > 100 | > 100 | > 100 | > 100 | > 100 | > 100 | 49000 | 58300 | > 100 | 36900 | 78500 | 71300 | 85.8 | 70300 | 32900 | 48.4
9 | CN(C)CCNC(=O)c1ccc(-c2nc3ccc4[nH]ncc4c3c3c2C2CCC3C2)cc1 (stereo not given) | 4.19 | 5.64 | 9.81 | 5.18 | 2.93 | 5.43 | 5.94 | 6.7 | 4.57 | 10.1 | 569 | 1840 | 2.69 | 2030 | 1250 | 1280 | 1.63 | 889 | 1490 | 1.01
10 | CCCCCN(CCCCC)CC(O)c1cc(Cl)ccc1OC (stereo not given) | 18.6 | 3.51 | 50.1 | 15.5 | 38.3 | 23.6 | 20.9 | 2.66 | 18.5 | 36 | 5110 | 1630 | 14.6 | 3370 | 15900 | 9790 | 5.79 | 528 | 5750 | 11.3
11 | O=S1(=O)N(Cc2ccccc2)[C@@H](Cc2ccccc2)[C@H](O)[C@H](O)[C@H](Cc2ccccc2)N1Cc1ccccc1 | 10.4 | 6.9 | > 20 | 5.96 | 5.53 | 6.17 | 6.71 | 13.6 | 5.8 | > 20 | 4260 | 3350 | 4.69 | 2730 | 2650 | 3040 | 3.11 | 4770 | 3050 | 5.96
12 | COc1cccc(CN(C)c2ccc(CO)c(Cl)c2)c1 | 11.7 | > 100 | > 100 | > 83.7 | 80 | 0.202 | > 100 | > 43.7 | 21.4 | > 100 | 3180 | 24200 | 35.2 | 14500 | 19800 | 58.8 | 18.6 | 504 | 7500 | 39.3
13 | O=C(Nc1ccc(F)cc1F)c1cc(Cl)ccc1O | 22.5 | 8.69 | > 100 | 6.18 | 3.31 | 5.73 | 8.27 | > 100 | 2.03 | 18.1 | 7790 | 754 | 1.45 | 1150 | 620 | 1290 | 1.6 | 2050 | 608 | 3.04
14 | CCN1CCN(Cc2ccc(NC(=O)Nc3nc4ccc(Oc5ccnc(C(=O)NC)c5)cc4s3)cc2C(F)(F)F)CC1 | 3.39 | 2.69 | 4.86 | 3.4 | 4.25 | 3.16 | 3.86 | 2.89 | 2.9 | 2.47 | 1800 | 1240 | 2.33 | 1830 | 2320 | 1450 | 1.83 | 1230 | 1520 | 0.443
15 | CN(C)c1ccc(/C=C2\N=C(c3ccccc3)N(c3cc(C(F)(F)F)ccc3Cl)C2=O)cc1 | > 100 | > 100 | > 100 | > 100 | > 100 | > 100 | > 100 | > 100 | > 100 | > 100 | > 100000 | > 100000 | > 100 | > 100000 | > 100000 | > 90400 | > 100 | 99800 | > 100000 | > 100
16 | C=C1C(=O)O[C@H]2[C@H]1CC/C(COC(=O)NCc1ccc(OC)cc1)=C\CC[C@@]1(C)O[C@@H]21 | 1.55 | 1.7 | 11 | 0.991 | 2.07 | 5.01 | 7.96 | 5.45 | 17.2 | 2.1 | 656 | 726 | 3.01 | 501 | 696 | 1100 | 1.45 | 1310 | 2850 | 0.378
17 | CCN1CCN(c2cc(C)nc(N(CCCNc3ccnc4cc(Cl)ccc34)Cc3ccc4c(c3)OCO4)n2)CC1 | 3.39 | 3.46 | 52 | 3.08 | 8.5 | > 100 | > 100 | 21.5 | 3.13 | 7.43 | 1720 | 1840 | 4.16 | 1510 | 2720 | 32800 | 7.4 | 2880 | 1700 | 2.38
18 | NS(=O)(=O)c1ccc(N=Nc2c(O)[nH]c3ccc(C(=O)NCc4ccncc4)cc23)cc1 | > 25 | > 25 | > 25 | > 25 | > 25 | > 25 | > 25 | > 25 | > 25 | > 25 | > 25000 | > 25000 | > 25 | > 25000 | > 9380 | > 25000 | > 25 | > 25000 | > 25000 | > 25
19 | O=[N+]([O-])c1nccn1CC(O)CN1CCCCC1 (stereo not given) | > 100 | > 100 | > 100 | > 100 | > 100 | > 100 | > 100 | > 100 | > 100 | > 100 | – | – | – | – | – | – | – | – | – | –
